From US20180207264A1, “PORCINE IMMUNE MODULATION MODEL” (Government of the United States as Represented by the …, priority 2017, published 2018)

Columns and labels:
[1] = test system: MCF-7 breast cancer cells; test: Cell death and cell growth in hormone dependent ER/PR positive breast cancer cell cultures; format: cell-based; conditions: 5 nM E2; for MCF7 Cell Death Amount: 25 μM β-AED, 25 μM β-AET, PEG 300 with LIPOFECTAMINE vehicle
Description: (§1) Hormone dependent, noninvasive, epithelial phenotype (ER/PR positive MCF-7 breast cancer cells) and hormone independent, invasive, mesenchymal phenotype (ER/PR negative MDA-MB-231 breast cancer cell) cell suspensions were acquired and prepared in complete medium (DMEM/F12, 10% FBS, 1% penicillin/streptomycin (Gibco)). Cellular concentration was adjusted to 2×10^5 cells/mL.
(§2) Androstene hormone solutions according to embodiments of the present invention were prepared from a first solution and a second solution. For the first solution, 3.0 mg of β-AED or 3-AET was added to warm PEG 300 to prepare 50 mM stock. For the second solution, 10 μL of LIPOFECTAMINE (3:1 DOSPA:DOPE) was introduced to 100 μL of PEG 300, mixed, and incubated in a water bath at 42° C. for 30 min. The first and second solutions were then mixed in a sonicator water bath at 42° C. for 1 hr. The final concentration was 50 mM β-AED (or AET, as used).
(§3) A β-estradiol solution was also prepared by adding 2.7 mg of β-estradiol to 200 μL warmed PEG 300 with LIPOFECTAMINE and then further diluted 1:1000 with PEG-300. The final concentration was 50 μM.
A diluted β-AED (or 3-AET) solution was prepared with complete medium at a final concentration of 50 μM (1:1000 dilute of 50 mM). Likewise, a diluted β-E2 solution was prepared with complete medium at a final concentration of 10 nM (1:5000 dilute of 50 μM).
Using a 24-well plate, mixtures of 0.5 mL of cells per well with 0.5 mL of medium diluted hormone vehicle. Cell cultures were maintained at 90% humidity, 7% CO2, and 37° C.

[2] = test system: MDA-MB-231 breast cancer cell; test: Cell death in hormone independent ER/PR negative breast cancer cell cultures; format: cell-based; conditions: 25 μM β-AED, 25 μM β-AET, 5 nM E2; PEG 300 with LIPOFECTAMINE vehicle
Description: as §1, §2, §3
A diluted β-AED (or 3-AET) solution was prepared with complete medium at a final concentration of 50 μM (1:1000 dilute of 50 mM). Likewise, a diluted β-E2 solution was prepared with complete medium at a final concentration of 10 nM (1:5000 dilute of 50 μM). […]

293T cells = test: Biological function (phenotype, mobile cells) of androstene hormone treatments in 293T cells; format: cell-based, human; conditions: androstene hormone 25 μM
Description: A non-toxic vehicle for administration of androstene hormones according to embodiments of the present invention was prepared from a first solution and a second solution. The first solution, comprising liposomal formulation, was placed in PEG 300 to a concentration of 5% and heated in a sonicating water bath to about 45° C. The second solution, comprising a selected hormone (one or more of 5Δ-androsten-3β, 17α-diol, 5Δ-androsten-3β, 17β-diol, or 5Δ-androsten-3β,7β,17β-triol), was placed in PEG 300 and heated in a sonicating water bath to about 45° C. The first and second solutions were then combine and stirred until dissolved.
Biological function was tested in 293T cells, which is a human embryonic cell line transformed with Large T antigen […] SV40. This hypotriploid (polyploid) cell line is particularly useful in such transformation studies and has very distinct phenotypes when grown. All androstene hormone treatment applications were at concentrations of 25 μM.

[3] = grown for 5 days, 25 μM androstene hormone, PEG 300 with 5% LIPOFECTAMINE

| SMILES | MCF7 Cell Death Amount [1] | MDA-MB-231 Cell Death Amount [2] | Phenotype of 293T cells (cell islands, mobile cells, cell processes) (293T cells; vehicle PEG 300) | Phenotype of 293T cells (cell islands, mobile cells, cell processes) (293T cells; vehicle PEG 300 and LIPOFECTAMINE) | Cell growth / cell density of MCF-7 cells compared with vehicle (FIG. 14) [1, 3] | Particles / cell bodies produced by MCF-7 cells in response to treatment [1, 3] |
| --- | --- | --- | --- | --- | --- | --- |
| C[C@]12CC[C@H]3[C@@H]([C@@H](O)C=C4C[C@@H](O)CC[C@@]43C)[C@@H]1CC[C@@H]2O [β-AET, 5-androstene-3β,7β, 17β-triol] | Not observed | Not observed | – | – | – | – |
| C[C@]12CC[C@H]3[C@@H](CC=C4C[C@@H](O)CC[C@@]43C)[C@@H]1CC[C@@H]2O [β-AED, androst-5-ene-3β, 17β-diol] | Not observed | Not observed | cell islands are larger and there is a significant reduction in mobile cells | drastic decrease in, or morphological change, in mobile elements | not as heath and there are areas of decreased density | small particles |
